Assay type in all cases: cell-based
For test [1], the system named is Adult Bovine Aortic Endothelial (ABAE) cell line. The test is described as follows: Antiproliferative activity in Adult Bovine Aortic Endothelial (ABAE) cell line, PROTOCOL 2 (48 h, sulforhodamine B). The following applies: Bos taurus, ABAE cells. As to the method:
The antiproliferative activity of the compounds of Formula I in an Adult Bovine Aortic Endothelial (ABAE) cell line and in Human Tumor cells lines is evaluated in three similar assays that measure growth inhibition. The assays are identified as follows: PROTOCOLS 1, 2, and 3 are described in greater detail hereinbelow. In general, according to PROTOCOLS 1 and 2, the target ABAE and/or Human Tumor cells are exposed to the compounds of Formula I for 48 hours. PROTOCOL 3 exposes ABAE cells to the compounds for 4 days. A detailed description of the Protocols is as follows: All cell lines are maintained in log phase in RPMI 1640 media, supplemented with 5% fetal calf serum, penicillin/streptomycin and 2 mM L-glutamine. Cultures are renewed after 20 passages with cells from a fresh stock of batch-frozen early passage cells. Cell lines are routinely checked for mycoplasma contamination (Genprobe). In a laminar flow hood, cells (1-5×10^4) are plated into 96-well microtiter plates in a volume of 0.1 ml/well with a bulk microtiter dispenser (Denley). […] At this concentration, dimethylsulfoxide has no effect on cell growth. Compounds are added using a Tomtec dispenser which simultaneously dispenses from one 96-well plate, containing the drug dilutions, to the plates containing the cells. […] The number of cells on the plate are quantitated using a protein dye-binding assay (Monks et al., 1991). […] The optical densities are read from an automatic spectrophotometric plate reader (Dynatech) directly to a main frame computer (VAX 8600). PROTOCOL 2 Antiproliferative Activity in Human Tumor and Adult Bovine Aortic Endothelial Cell Lines (ABAE) The antiproliferative activity of the compounds of Formula I is evaluated in a panel comprised of human tumor cell lines as listed in Protocol 1 as well as an adult bovine aortic endothelial cell line (ABAE). […] Table 1 presents the results depicting the antiproliferative activity of the compounds of Formula I against an ABAE cell line, as evaluated by PROTOCOL 2 and PROTOCOL 3. […]

The test system of a further test is CACO2. The test is described as follows: Antiproliferative activity in human tumor cell lines, PROTOCOL 1 and PROTOCOL 2. As to the method:
(§1) The antiproliferative activity of the compounds of Formula I in an Adult Bovine Aortic Endothelial (ABAE) cell line and in Human Tumor cells lines is evaluated in three similar assays that measure growth inhibition. The assays are identified as follows:
(§2) PROTOCOLS 1, 2, and 3 are described in greater detail hereinbelow. In general, according to PROTOCOLS 1 and 2, the target ABAE and/or Human Tumor cells are exposed to the compounds of Formula I for 48 hours. PROTOCOL 3 exposes ABAE cells to the compounds for 4 days. A detailed description of the Protocols is as follows:
(§3) Antiproliferative Activity in Human Tumor Cell Lines
(§4) The antiproliferative activity of the compounds of Formula I of the present invention is evaluated in a panel comprised of human tumor cell lines. The human tumor cell lines are from
(§5) 2) Colon tumors: MIP, CACO2, and SW620.
(§6) All cell lines are maintained in log phase in RPMI 1640 media, supplemented with 5% fetal calf serum, penicillin/streptomycin and 2 mM L-glutamine. Cultures are renewed after 20 passages with cells from a fresh stock of batch-frozen early passage cells. Cell lines are routinely checked for mycoplasma contamination (Genprobe). In a laminar flow hood, cells (1-5×10^4) are plated into 96-well microtiter plates in a volume of 0.1 ml/well with a bulk microtiter dispenser (Denley). […] At this concentration, dimethylsulfoxide has no effect on cell growth. Compounds are added using a Tomtec dispenser which simultaneously dispenses from one 96-well plate, containing the drug dilutions, to the plates containing the cells. After two days of continuous drug exposure, 50% cold trichloroacetic acid (TCA) is added to 10% final concentration to fix the cells, and after 60 minutes at 4° C., the TCA is aspirated and the plates are washed 5 times with deionized water using a microtiter plate washer. The number of cells on the plate are quantitated using a protein dye-binding assay (Monks et al., 1991). A 0.4% solution of the dye, sulforhodamine B, in […] is added to the plates, and the plates are washed 5 times with 1% glacial acetic acid using the automatic plate washed. The bound stain is solubilized with 0.1 ml of 10 mMTris base. The optical densities are read from an automatic spectrophotometric plate reader (Dynatech) directly to a main frame computer (VAX 8600).
(§7) Positive controls, that include standard chemotherapeutic drugs (i.e., adriamycin, cisplatin, etc.), are included in every experiment.
(§8) Background optical density measurements (complete media--cells, and complete media+drug-cells) are automatically subtracted from the appropriate control and test wells. Mean values and standard errors are determined from duplicate wells. A measure is also made of the optical density at time when the drugs are added. The number of cells after treatment (P), as % of control, is calculated for every concentration of drug, as follows: [formula] wherein: T is optical density measurement for treated cells after 48 hours;
(§9) C is optical density measurement for untreated cells after 48 hours;
(§10) Co is optical density measurement for cells at the time of drug addition.
(§11) IC50 of Growth inhibition is calculated from the sets of P values using the RS-1 data package (BBN Software).
(§12) Antiproliferative Activity in Human Tumor and Adult Bovine Aortic Endothelial Cell Lines (ABAE)
(§13) The antiproliferative activity of the compounds of Formula I is evaluated in a panel comprised of human tumor cell lines as listed in Protocol 1 as well as an adult bovine aortic endothelial cell line (ABAE). This assay is a modification of PROTOCOL 1. The modifications include:
(§14) 1) each concentration for each compound is tested in a single well;
(§15) 2) compounds are tested at 20, 4, 0.8, 0.16 microgram/ml and additionally in some experiments at 100 and 0.32 microgram/ml;
(§16) 3) samples are pipetted into a 96-well plate for each of the cell lines by a Beckman Biomek 1000 SL robot; […]

Another test concerns MIP. The description is as above. The following applies: colon tumor cell line MIP, 48 hours. As to the method: as §1, §2, §3, §4, §5, §6, §7, §8, §9, §10, §11, §12, §13, §14, §15, §16
The mark [2] stands for this setting: Caco-2, colon tumor cell line CACO2, 48 hours, read-out: IC50.

Values after ≈ are worked out from the molar mass of the structure shown. Where a name gives a salt, the structure may show the parent alone. Read-outs that look alike come from different tables or passages of the source.

Take `CN(C)[C@@H]1C(O)=C(C(N)=O)C(=O)[C@@]2(O)C(O)=C3C(=O)c4c(O)ccc(Br)c4CC3CC12` (stereo partly drawn) [Example 8, [4S-(4α,12aα)]-7-Bromo-4-(dimethylamino)-1,4,4a,5,5a,-6,11,12a-octahydro-3,10,12,12a-tetrahydroxy-1,11-dioxo-2-naphthacenecarboxamide sulfate]: the IC50 – broadly, the concentration at which inhibition is half-maximal – in test [1] is 2.4 µg/mL; in the test with CACO2 (setting [2]), 2.4 µg/mL; in the test on MIP, 2 µg/mL.

Turning to `CN(C)[C@@H]1C(O)=C(C(N)=O)C(=O)[C@@]2(O)C(O)=C3C(=O)c4c(O)ccc(I)c4CC3CC12` (stereo partly drawn) [Example 10, [4S-(4α,12aα)]-4-(Dimethylamino)-4,4,4a,5,5a,6,11,12a-octahydro-3,10,12,12a-tetrahydroxy-7-iodo-1,11-dioxo-2-naphthacenecarboxamide], the IC50 in test [1] is 5 µg/mL (≈ 9.25 µM); with CACO2 (Caco-2, 48 h) it was 2.8 µg/mL (≈ 5.18 µM); in the test with MIP it was 0.8 µg/mL (≈ 1.48 µM).

Turning to `CN(C)c1ccc(O)c2c1C[C@H]1C[C@H]3[C@H](N(C)C)C(O)=C(C(N)=O)C(=O)[C@@]3(O)C(O)=C1C2=O` [Minocycline, reference compound], the IC50 was more than 20 µg/mL in test [1], 9 µg/mL (≈ 19.7 µM) in the test on CACO2 (setting [2]) and 6.1 µg/mL (≈ 13.3 µM) in the test with MIP.

The values are drawn from patent US5574026A, “Methods for inhibiting angiogenesis proliferation of endothelial or tumor cells and tumor growth” (American Cyanamid Company, priority 1994, dated 1996).
